Data from paper PMC9409351, “Differential Ganglioside and Cholesterol Depletion by Various Cyclodextrin Derivatives and Their Effect on Synaptosomal Glutamate Release” (International Journal of Molecular Sciences, 2022).

How the values were obtained:
[1] = system: cholesterol content of rat cerebral synaptosomes; assay: Cholesterol depletion from synaptosomes, Cholesterol Fluorometric Assay Kit; format: cell-based; conditions: for IC50: rat cerebral synaptosomes, 40 min exposure, 37 °C; for Cholesterol depletion in the tested concentration range: tested concentration range 0.3–100 mM
Description: Adult male Wistar rats purchased from Toxi-Coop Ltd. (Budapest, Hungary) were used in the experiments. Cerebral synaptosomes were prepared according to Modi and co-workers with the following modifications. Animals were decapitated and the brain was removed rapidly. Isotonic sucrose buffer (0.32 M sucrose, 4 mM HEPES-NaOH, pH 7.4) was used to homogenize the cerebrum with a Potter S Homogenizer (B. Braun, Melsungen, Germany) with 15 strokes at 1000 rpm. The homogenate was centrifuged (1500× g, 10 min, 4 °C) and the pellet was resuspended in sucrose buffer and centrifuged with the same parameters again. The two supernatants were combined and centrifuged (20,000× g, 10 min, 4 °C) to pellet the crude synaptosomes. The resulting supernatant was discarded and the pellet was washed again with an equal volume of sucrose buffer and then pelleted by centrifugation (20,000× g, 10 min, 4 °C). Synaptosomes were stored frozen using cryopreservation buffer and the slow freezing method to preserve their physiological state and integrity. Briefly, synaptosome pellets were resuspended in isotonic sucrose buffer containing 10% DMSO (v/v) and 10% FBS (v/v). To slow down the freezing process at −80 °C, synaptosomes were placed in a 3 cm thick-walled polystyrene box with a lid. Synaptosomes were stored at −80 °C until use. Immediately prior to the experiments, synaptosomes were rapidly thawed in a 37 °C water bath and pelleted by centrifugation (20,000× g, 10 min, 4 °C) to remove the cryopreservation buffer. The pellet was resuspended in isotonic HEPES-glucose buffer (10 mM HEPES-NaOH, 130 mM NaCl, 5.4 mM KCl, 1.3 mM CaCl2, 0.9 mM MgCl2, 5.5 mM glucose, pH 7.4) and aliquoted according to the experimental design.
For all types of experiments, except for the glutamate release measurements, vehicle-treated (control) and CD-treated synaptosomes were incubated in 500 μL HEPES-glucose buffer with or without CDs, respectively, for 40 min at 37 °C. […] After incubation, the synaptosomes were centrifuged (20,000× g, 5 min, 4 °C) and used immediately for further analysis. A slightly different incubation method used in the glutamate release measurements is described in the corresponding section. Across all types of experiments, osmolarities of the CD solutions were adjusted and they were between 290 and 310 mOsm. At least three parallel measurements were carried out.
The cholesterol levels of the rat cerebral synaptosomes were measured with a Cholesterol Fluorometric Assay Kit (Cayman Chemical Company, Ann Arbor, MI, USA) with minor adjustments for the sample preparation. Briefly, after CD treatments, 2 mg of the synaptosomes were extracted with 10 vol chloroform–methanol 2:1 (v/v) to gain a lipid extract. The samples were centrifuged (20,000× g, 5 min, 4 °C) and then the supernatant was evaporated to dryness under a nitrogen stream (Zymark TurboVap LV) in a 37 °C water bath. The extracts were resuspended and diluted in the assay buffer (1.2 mL/mg synaptosome). Further preparation of the assay was according to the manufacturer’s protocol. Fluorescence was measured with a Varioskan LUX multimode microplate reader (Thermo Fisher Scientific, Waltham, MA, USA) at 530/590 nm. Cholesterol depletion in the CD-treated synaptosomes was calculated as the percentage of the cholesterol content of the vehicle-treated synaptosomes.
Data were analyzed by GraphPad Prism 8 (GraphPad Software, La Jolla, CA, USA). Concentration–response curves were constructed by the nonlinear regression method. One-way ANOVA followed by Bonferroni’s post hoc test was used for the data analysis in the case of the glutamate release experiments. All data are presented as means ± SEM of at least three parallel measurements. Differences were considered significant if p < 0.05.

[2] = system: GM2 and GM3 immunoreactivity; set-up: method as in PMID 27231706; conditions: NPC mouse model; cited from earlier work
[3] = system: cell model of GM1 gangliosidosis; set-up: method as in doi:10.1007/s10847-018-0835-8; conditions: immunofluorescence staining; cited from earlier work

COC[C@H]1O[C@@H]2O[C@H]3[C@H](O)[C@@H](OC)[C@@H](O[C@H]4[C@H](O)[C@@H](OC)[C@@H](O[C@H]5[C@H](O)[C@@H](OC)[C@@H](O[C@H]6[C@H](O)[C@@H](OC)[C@@H](O[C@H]7[C@H](O)[C@@H](OC)[C@@H](O[C@H]8[C@H](O)[C@@H](OC)[C@@H](O[C@H]1[C@H](O)[C@H]2OC)O[C@@H]8COC)O[C@@H]7COC)O[C@@H]6COC)O[C@@H]5COC)O[C@@H]4COC)O[C@@H]3COC [DIMEB, heptakis(2,6-di-O-methyl)-beta-cyclodextrin]
Cholesterol extraction at 10 mM ([1]; 10 mM): approximately 50%
Cholesterol extraction at 30 mM ([1]; 30 mM): Nearly total extraction
IC50 [1]: 7.4 mM

CC(O)COC[C@H]1O[C@@H]2O[C@H]3[C@H](O)[C@@H](O)[C@@H](O[C@H]4[C@H](O)[C@@H](O)[C@@H](O[C@H]5[C@H](O)[C@@H](O)[C@@H](O[C@H]6[C@H](O)[C@@H](O)[C@@H](O[C@H]7[C@H](O)[C@@H](O)[C@@H](O[C@H]8[C@H](O)[C@@H](O)[C@@H](O[C@H]1[C@H](O)[C@H]2O)O[C@@H]8COCC(C)O)O[C@@H]7COCC(C)O)O[C@@H]6COCC(C)O)O[C@@H]5COCC(C)O)O[C@@H]4COCC(C)O)O[C@@H]3COCC(C)O (stereo partly drawn) [HPBCD, (2-hydroxypropyl)-beta-cyclodextrin]
Accumulation of GM2 and GM3 immunoreactivity [2]: reduces the accumulation of GM2 and GM3 immunoreactivity
IC50 ([1]; 40 min): 33.5 mM

(2-hydroxypropyl)-alpha-cyclodextrin [HPACD]
Accumulation of GM2 and GM3 immunoreactivity [2]: much less effective compared to HPBCD
Lysosomal accumulation of GM1 [3]: reduced lysosomal accumulation of GM1
Cholesterol depletion in the tested concentration range [1]: without affecting the cholesterol content

randomly methylated alpha-cyclodextrin [RAMEA]
Cholesterol depletion in the tested concentration range [1]: without affecting the cholesterol content
